Measured values: patent US8859284B2, “Delivery of nanoparticles to neurons” (The United States of America, as represented by the …, priority 2009, dated 2014)
Read-outs that look alike come from different tables or passages of the source. Square brackets hold non-standard residues; d marks the D form. Ends that are not written are not given here. Peptide text beside a SMILES is read from it. * marks the point of attachment. Palmitoyl = CCCCCCCCCCCCCCCC(=O)*; Dap = NC[C@H](N)C(=O)O; Aib = CC(C)(N)C(=O)O

Assays:
HEK 293T/17 cells [1] = test system: HEK 293T/17 cells
Protocol: Cellular toxicity was assessed using the CellTiter 96 Cell Proliferation Assay (Promega, Madison Wis.) according to the manufacturer's instructions. This assay is based upon the conversion of a tetrazolium substrate to a formazan product by viable cells at the assay end point (see reference 24). Cells (1×10^4 cells/well) were cultured in 96-well microtiter plates in complete growth medium in the presence of increasing concentrations of QDs, free peptide or polymer, or QDs in complex with peptide or polymer. In each case, the materials were incubated with the cells for the time required for efficient QD uptake. The materials were subsequently replaced with complete growth medium and the cells were cultured for 72 hours.

[2] = biological target: T1, Palmitoyl Protein Thioesterase 1 (PPT1) (Homo sapiens, UniProt P50897); conditions: competitive inhibitors; acidic environments; cited from earlier work
T1 sequence (P50897 28-306): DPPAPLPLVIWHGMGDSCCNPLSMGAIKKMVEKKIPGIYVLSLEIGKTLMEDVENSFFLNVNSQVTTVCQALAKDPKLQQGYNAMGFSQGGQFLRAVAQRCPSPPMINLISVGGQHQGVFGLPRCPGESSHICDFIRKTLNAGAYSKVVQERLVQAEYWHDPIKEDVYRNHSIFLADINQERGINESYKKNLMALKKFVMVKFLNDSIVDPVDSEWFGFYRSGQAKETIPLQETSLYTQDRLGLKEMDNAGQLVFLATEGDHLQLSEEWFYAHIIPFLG

HEK 293T/17 cells [3] = experiment: FRET monitoring of intracellular stability of polyhistidine-QD association; format: cell-based, Human; conditions: over three days, no QDs present
Protocol: (§1) Merged images were generated using Adobe PhotoShop.
To investigate this issue, QD-peptide conjugates were prepared that engaged in FRET and their intracellular interactions were monitored over time. 510 nm DHLA-capped QDs were first assembled with an average of ˜2 Cy3-labeled His6-peptides and then the CPP was added to form the full conjugate (schematic in FIG. 3A). Due to the peptide's small size and proximity of the Cy3 acceptor to the nanocrystal surface, this valence results in a ca. 40% quenching of the QD PL by FRET. The resulting conjugates were delivered to HEK 293T/17 cells and the cells were cultured for three days. QD-donor and Cy3-acceptor FRET interactions over time within the cells were measured by exciting the QD and collecting side-by-side split fluorescence images using the DualView system and deconvoluting the subsequent intensity data. […] When the Cy3/QD emission ratio (normalized and corrected for direct Cy3-acceptor excitation) was calculated a gradual decrease was observed over time, culminating in a 36% decrease over three days (FIG. 3C). […] When Cy3 was delivered to the endosomes as a Cy3-labeled transferrin conjugate (no QDs present), the fluorescence output of the dye decreased approximately 34% over the same time period, in excellent agreement with the decrease observed in the above QD-CPP-Cy3-labeled peptide constructs (FIG. 3D). […]

HEK 293T/17 cells [4] = experiment: Cellular delivery of QDs, intracellular fate by fluorescence microscopy; conditions: summary of QD delivery strategies; some agents also tested in COS-1
Protocol: Human embryonic kidney (HEK 293T/17) and African green monkey kidney (COS-1) cell lines (ATCC, Manassas, Va.) were cultured in complete growth medium (Dulbecco's Modified Eagle's Medium (DMEM; purchased from ATCC)) supplemented with 1% (v/v) antibiotic/antimycotic and 10% (v/v) heat inactivated fetal bovine serum (ATCC). Cells were cultured in T-25 flasks and incubated at 37° C. under 5% CO2 atmosphere and a subculture was performed every 3-4 days (see reference 13).
The QD delivery experiments were performed on adherent cells seeded into the wells of Lab-Tek 8-well chambered #1 borosilicate coverglass (Nalge Nunc, Rochester, N.Y.) coated with 2 μg/mL fibronectin. For electroporation and nucleofection, adherent cells were harvested by trypsinization prior to performing QD delivery to cells in suspension. Cells were then seeded to chambered coverglass wells and imaged after cell attachment. The endosomal marker AlexaFluor647-transferrin was included as indicated in the text. For imaging, cells were washed with phosphate buffered saline (PBS, 137 mM NaCl, 10 mM phosphate, 3 mM KCl, pH 7.4), fixed with 3.7% paraformaldehyde in PBS and nuclei were stained with DAPI (Sigma) unless otherwise indicated.
For electroporation, cells were harvested by trypsinization and recovered for 1 hour in complete growth medium, pelleted, and resuspended in PBS. 510 nm DHLA-PEG QDs (0.5 μM final concentration) were mixed with 1×10^4 cells to a final volume of 100 μL in PBS in a 0.2 mm electroporation cuvette. The cuvette was subjected to 100 V for a 20 ms pulse using a GenePulser XCell electroporator (Bio-Rad, Hercules, Calif.). Cells were resuspended in complete growth medium, seeded into fibronectin-coated 8-well chambered coverglass, fixed and imaged after 24 hrs. For nucleofection delivery, 1×10^6 cells were harvested and resuspended in 100 μL of NUCLEOFECTOR reagent (Amaxa, Gaithersburg, Md.). 510 nm DHLA-PEG QDs were included at a final concentration of 0.4 μM. The cell/QD/reagent mixture was pulsed in the NUCLEOFECTOR using a preset protocol adapted for each specific cell line (20, 21). Cells were cultured and imaged as described for electroporation.
The INFLUX cell-loading reagent mediates the intracellular release of materials internalized via pinocytic vesicles by delivering the materials to cells in a hypertonic medium followed by the transfer of the cells to a hypotonic medium to induce vesicle disruption (see reference 22). 510 nm DHLA-PEG QDs were diluted to a final concentration of 300-800 nM in the supplied hypertonic delivery media according to manufacturer's instructions and incubated on the cells for 30 min at 37° C. The hypertonic medium was exchanged for hypotonic medium (serum-free culture medium diluted by 40% with deionized water) and incubated on the cells for 3 min. The cells were then recovered in complete growth medium for 30 min and cultured for various lengths of time prior to washing and fixation for imaging.
520 nm QDs with a 1:1 mixed surface of DHLA:DHLA-PEG were incubated with LIPOFECTAMINE 2000 for 20 min in serum free medium at a ratio of 1 μL LIPOFECTAMINE 2000 per 1.5 pmol QD. The complexes, at a final QD concentration of 75 nM, were incubated with the cells for 4 hours, removed and replaced with complete growth medium. The cells were then cultured for 24-36 h prior to washing and fixation.
PEI was incubated with 520 nm mixed surface DHLA:DHLA-PEG QDs in serum free medium at a ratio of 10 μg PEI per 1 pmol QD for 15 min. […] The complexes were then diluted into serum free media to a final QD concentration of 75-100 nM, incubated with cells for 2 h and removed. Cells were then cultured in complete media for 24-36 h, washed and fixed.
A stock solution of 520 nm DHLA:DHLA-PEG QDs (1 μM in 0.1 M borate buffer, pH 8.9) was diluted to 0.5 μM in HEPES (4-(2-hydroxyethyl)-1-piperazineethanesulfonic acid, pH 8.2).

HEK 293T/17 cells [5] = conditions: cited from earlier work
COS-1 cells = experiment: Cellular uptake and endosomal escape of QD-peptide assemblies, fluorescence microscopy; format: cell-based, African green monkey; conditions: COS1 cells
Protocol: as §1
The peptide assemblies were incubated with COS-1 cells for 1 hr, removed, and the cells were subsequently cultured for 24 hr prior to fixation. An AlexaFluor 647-transferrin (Tf) conjugate was included during the incubation to label the vesicles of the endocytic pathway. Cell nuclei were stained with DAPI.

HeLa cells = experiment: QD uptake and endosomal escape in HeLa cells; format: cell-based; conditions: 163 HeLa cells, Palm-1 conjugated to a QD
Protocol: The Palm-1 peptide was also tested in HeLa cells, and found to be very effective in promoting endosomal escape.

[6] = test system: COS-1 and HEK 293T/17 cells; experiment: Cellular delivery of QDs, result stated for both cell lines together; format: cell-based, African green monkey; Human; conditions: for intracellular distribution of QDs: both cell lines; for degree of endocytic uptake: compared with Palm-1, 72 h observation
Text: as §1

## CC(C)C[C@H](NC(=O)CNC(=O)[C@H](Cc1c[nH]c2ccccc12)NC(=O)[C@H](Cc1c[nH]cn1)NC(=O)[C@H](Cc1c[nH]cn1)NC(=O)[C@H](Cc1c[nH]cn1)NC(=O)[C@H](Cc1c[nH]cn1)NC(=O)[C@H](Cc1c[nH]cn1)NC(=O)[C@@H](N)Cc1c[nH]cn1)C(=O)N[C@@H](C)C(=O)NC(C)(C)C(=O)N[C@@H](CO)C(=O)NCC(=O)N1CCC[C@H]1C(=O)N[C@@H](CCCCN)C(=O)N[C@@H](CCCCN)C(=O)N[C@@H](CCCCN)C(=O)N[C@@H](CCCNC(=N)N)C(=O)N[C@@H](CCCCN)C(=O)N[C@H](C(=O)O)C(C)C [NLS peptide, reference compound] (H-HHHHHHWGLA[Aib]SGPKKKRKV-OH)
HEK 293T/17 cells [1]
  Toxicity: minimally toxic

## AcG(Pal)DapVKIKK
[2]
  inhibition of palmitoyl thioesterase: low micromolar affinity

## Cy3-labeled transferrin conjugate: Cy3 delivered to endosomes as labeled transferrin, no QDs
HEK 293T/17 cells [3]
  decrease of fluorescence output of the Cy3 dye: approximately 34%

## GDap(Pal)VKIKK
[2]
  inhibition of palmitoyl thioesterase: low micromolar range

## R9GGLA(Aib)SGWKH6 [CPP peptide]
HEK 293T/17 cells [4]
  Quantum Dot Fate: Endosomal, QDs punctate
HEK 293T/17 cells [5]
  Toxicity: minimally toxic

## WGDapaVKIKK(P)9GG(H)6 [JB577]
COS-1 cells; QD-peptide assemblies
  % Escape in cells with uptake: 77%
COS-1 cells; first word of the cell
  Overall uptake/escape: uptake: High
COS-1 cells; second word of the cell
  Overall uptake/escape: escape: high
HEK 293T/17 cells [4]
  Quantum Dot Fate: Cytosolic, QDs dispersed
HEK 293T/17 cells [1]
  Toxicity: minimally toxic
HeLa cells
  QD uptake: 90%
  endosomal escape of the cells with uptake: 86%
  endosomal escape of the total: 77%

## WGDapaVKIKKGL(A)4GG(H)6 (WG[Dap](Palmitoyl)VKIKKGLAAAAGGHHHHHH) [Palm-2, No (Pro)9, short linker]
[6]
  intracellular distribution of QDs: remained completely sequestered within endosomes
  degree of endocytic uptake: significant reduction in the degree of endocytic uptake

## WGDapaVKIKKGLPAAGG(H)6 [Palm-3]
[6]
  intracellular distribution of QDs: remained completely sequestered within endosomes
  degree of endocytic uptake: significant reduction in the degree of endocytic uptake
